pEC50: −log10 of the molar value.

The experiment deals with Hexokinase HKDC1 [W721R] (Homo sapiens, UniProt Q2TB90, W721R). The experiment can be described thus: activation of HKDC1 glucose phosphorylation – biochemical, W721R variant, dose response (AID 504730).
Sequence of Hexokinase HKDC1 [W721R] (Q2TB90 whole entry W721R): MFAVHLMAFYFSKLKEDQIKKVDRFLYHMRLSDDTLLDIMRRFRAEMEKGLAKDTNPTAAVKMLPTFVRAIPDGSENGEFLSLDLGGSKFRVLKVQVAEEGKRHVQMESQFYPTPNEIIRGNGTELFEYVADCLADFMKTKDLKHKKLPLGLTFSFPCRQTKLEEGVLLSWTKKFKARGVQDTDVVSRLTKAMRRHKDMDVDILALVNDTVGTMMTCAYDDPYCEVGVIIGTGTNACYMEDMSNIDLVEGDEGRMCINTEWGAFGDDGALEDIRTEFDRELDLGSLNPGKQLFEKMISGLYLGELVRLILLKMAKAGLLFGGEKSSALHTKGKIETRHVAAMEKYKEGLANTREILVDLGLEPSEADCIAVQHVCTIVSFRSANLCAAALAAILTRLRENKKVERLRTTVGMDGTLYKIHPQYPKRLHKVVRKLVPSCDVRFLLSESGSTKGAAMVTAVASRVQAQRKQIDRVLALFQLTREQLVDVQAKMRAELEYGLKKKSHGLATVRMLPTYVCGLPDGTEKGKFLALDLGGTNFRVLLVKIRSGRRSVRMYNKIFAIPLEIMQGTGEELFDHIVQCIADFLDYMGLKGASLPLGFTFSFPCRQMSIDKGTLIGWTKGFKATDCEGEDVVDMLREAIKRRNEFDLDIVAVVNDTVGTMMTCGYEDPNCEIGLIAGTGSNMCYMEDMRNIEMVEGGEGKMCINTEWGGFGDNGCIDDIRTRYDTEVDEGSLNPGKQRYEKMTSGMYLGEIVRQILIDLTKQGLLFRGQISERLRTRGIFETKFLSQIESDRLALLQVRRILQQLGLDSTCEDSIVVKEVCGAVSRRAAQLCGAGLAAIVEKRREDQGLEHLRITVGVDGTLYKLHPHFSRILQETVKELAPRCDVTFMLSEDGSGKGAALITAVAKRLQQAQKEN
The term pEC50 denotes the EC50 on a negative log10 scale, so that one unit is a factor of ten. The low end stands for a high EC50, the high end for a low EC50. `Cc1[nH]n(-c2ccccc2)c(=O)c1CN=Nc1nncc(-c2ccccc2)n1` [(4E)-5-methyl-2-phenyl-4-[[(5-phenyl-1,2,4-triazin-3-yl)hydrazo]methylidene]-3-pyrazolone] showed a negative-log EC50 (pEC50) of 5.17.
To `Nn1cnnc1N=NCc1cc(Br)cc(Br)c1O` belongs less than 4.10; to `CC(=O)Oc1cccc2c(O)c3c(c(O)c12)CC=CC3OC(C)=O` (centres undefined) [SMR001574207], 4.29.
To `CC(C)(C)c1nnc(N=NCc2cc(Br)ccc2O)n(N)c1=O` [4-azanyl-3-[2-[(E)-(3-bromanyl-6-oxidanylidene-cyclohexa-2,4-dien-1-ylidene)methyl]hydrazinyl]-6-tert-butyl-1,2,4-triazin-5-one] belongs 4.70; to `CC(N=Nc1nc2ccccc2o1)c1cc2ccccc2cn1` (centres undefined), 5.65.
In the case of `Oc1c(Cl)c(N=Cc2cccnc2)c(O)c2ccccc12` [MLS001195521] it was 5.03; in that of `O=C1C(=C2C(=O)c3ccccc3C2=O)Nc2ccccc21` [MLS000071738], 4.61.
Regarding `COCc1cc(C2C(C(=O)c3ccco3)C(=O)C(=O)N2CCOCCO)ccc1O` (centres undefined) [3-(furan-2-carbonyl)-4-hydroxy-1-[2-(2-hydroxyethoxy)ethyl]-2-[4-hydroxy-3-(methoxymethyl)phenyl]-2H-pyrrol-5-one], the negative-log EC50 (pEC50) was less than 4.10.
For the molecule `CCCOC1=CC(=O)C(C=NNC(=S)Nc2ccccc2[N+](=O)[O-])C=C1` (centres undefined) [1-(2-nitrophenyl)-3-[[(E)-(6-oxo-4-propoxy-1-cyclohexa-2,4-dienylidene)methyl]amino]thiourea], the pEC50 was 4.58.
